Entries after “also recorded” stand apart in the source; their conditions may differ.
Tested on: healthy donor PBMCs
Test: IFNγ ELISpot assay with peptide-stimulated healthy donor PBMCs
Type: cell-based, human
Settings: for ELISPOT positive: only neoAgs marked Tested with ELISPOT; for ELISpot result (positive response) for peptides tested with ELISpot / ELISpot IFNγ reactivity (immunogenicity) of individual peptides: healthy donor PBMCs; for ELISpot IFNγ reactivity (immunogenicity) of individual peptides: compared to unexposed control cells
Procedure: FIG. 10A-D. In vitro validation of predicted neoAgs immunogenicity using ELISpot IFNy assay. A) Schematic of peptide pool, stimulation, and cell culture workflow for ELISpot assays. PBMCs were exposed with the individual peptides from the immunogenic pools in the presence of IL-7 for 3 d, followed by expansion of neoAg-specific T cells in the presence of IL-2. On day 13, expanded cells (10^5 cells per well) were plated onto 96-well ELISpot plate coated with an IFNγ antibody and re-stimulated with the respective peptide for 24 h. IFNy secreting cells were analyzed as spot-forming units (SFUs), and the inventors chose ≥15 SFU produced by peptide stimulated cells over DMSO control cells as an indicator of the peptide immunogenicity. B) Quantification of IFNγ-secreting cells (SFU) obtained from ELISpot assay of 12 neoAg-stimulated PBMCs. ConcA and DMSO served as positive and negative controls. […] C) Selection of 110 predicted MHC-I neoAgs from 3 different categories and percentage of immunogenicity in vitro validation. […] “Most Immunogenic” refers to neoAgs selected from the top 100 prediction list of Most Immunogenic MHC-I neoAgs. “Most recurrent” refers to neoAgs selected from the top 100 prediction list of Most Recurrent MHC-I neoAgs. “Others” refers neoAgs that were predicted to have low immunogenicity and no recurrency. A total of 44 MHC-II neoAgs from 2 different categories were tested. […] “Most Immunogenic” refers to neoAgs selected from the top 100 prediction list of Most Immunogenic MHC-II neoAgs. “Most recurrent” refers to neoAgs selected from the top 100 prediction list of Most Recurrent MHC-II neoAgs. D) pMHC-pentamer staining. Expanded Pan-T cells from the healthy human donor were isolated and stained with WDTC1 neoAg peptide/A*02:01 Pentameric complexes and PerCP-conjugated CD8 antibody followed by flow cytometry analysis. Pan T-cells from healthy human donor PBMC (HLA-A*02:01) were isolated using negative magnetic selection. Isolated Pan T cells were stimulated and expanded with Opto-antigen presenting beads conjugated with WDTC1 neoAg-peptide. Viable Pan-T cells were gated based on FSC and SSC scatter and SYTOX Blue dead cells staining after doublet-exclusion. Flow cytometric plots representing CD8 positive (x-axis) and PE-biotin-pMHC-pentamer positive (y-axis) cells; unstained, unstimulated, and WDTC1 Opto-antigen presenting beads stimulated cells (left to right). The percentage of live CD8+ cells and CD8/WDTC1 neoAg-loaded MHC pentamer positive cells are shown.
FIG. 19A-B. In vitro validation of the pooled predicted neoAgs immunogenicity using ELISpot IFNγ assay. A) Schematic of peptide pool, stimulation, and cell culture workflow for ELISpot assays. All 154 peptides were grouped into 15 peptide pools to stimulate PBMCs from 3 healthy human donors as shown in the illustrations. IFNy secreting cells were analyzed as spot-forming units (SFUs), indicative of immunogenicity. B) Quantification of IFNγ-secreting cells (SFU) obtained from ELISpot assay. Pools 2, 3, 5, 6, 9, and 12 produced at least 15 or higher SFU/10^5 cells from two different PBMCs. […] ConcA and DMSO served as positive and negative controls.
Healthy donor PBMCs were stimulated with 15 peptide pools (Supplementary Table 13) to expand the neoAg-specific CD8^+ T-cells followed by quantitative ELISpot assays (FIG. 19A) to measure immunogenicity. […] To ascertain the immunogenicity of individual peptides within each immunogenic pool. a deconvolution protocol (see Methods) was implemented (FIG. 10A). […] Three percent of MHC-I neoAgs not predicted to be highly immunogenic or recurrent (Others). 5% of the top 100 most immunogenic MHC-II predicted neoags, and 6% of the top 100 most recurrent MHC-II predicted neoags elicited an immunogenic response as assessed by ELISpot assays. Additionally. 18% of all of these elispot-reactive neoags were also predicted from the validation set (FIG. 9C). […]

[1] = IFNγ ELISpot, only peptides marked Tested
[2] = IFNγ ELISpot, peptides marked Tested
[3] = IFNγ ELISpot, peptide-stimulated healthy donor PBMCs, peptides grouped in 15 pools
[4] = IFNγ ELISpot, peptide-stimulated healthy donor PBMCs
[5] = IFNγ secretion in healthy donor PBMCs vs unexposed control cells

## 112 (FLALNQLPQV) [compound 112]
  ELISPOT positive: No

## 218 (RWMVLRNSWRAVARM) [compound 218]
[1]
  Elispot reactive: No

## 219 (IDNIKRNHNLALGRQ) [compound 219]
[1]
  Elispot reactive: No

## 220 (PKMQVTITLTSPIIR) [compound 220]
[1]
  Elispot reactive: No

## 222 (KTGLQLLRNHIEELK) [compound 222]
[1]
  Elispot reactive: No

## 223 (QKKLMLLRLNLRKMC) [compound 223]
IFNγ ELISpot
  ELISpot result (positive response) for peptides tested with ELISpot: No
[1]
  Elispot reactive: No

## 224 (LINIHHRKNPLLPMR) [compound 224]
[1]
  Elispot reactive: No

## 227 (EDIEFHFSLGWTMLV) [compound 227]
[1]
  Elispot reactive: No

## 229 (PALLLAEATHKASAL) [compound 229]
[1]
  Elispot reactive: No
[2]
  Elispot reactive: No

## 230 (SLDNVLRTMLRRFAR) [compound 230]
[1]
  Elispot reactive: No

## 231 (YLRFIKSLAERTMSV) [compound 231]
[1]
  Elispot reactive: No

## 233 (RHVIKVLLGRKVNWH) [compound 233]
[1]
  Elispot reactive: No
[2]
  Elispot reactive: No

## 234 (QLARFFPITPPVWHI) [compound 234]
[1]
  Elispot reactive: No
[2]
  Elispot reactive: No

## 236 (FEEIIKNDGALLKKK) [compound 236]
[1]
  Elispot reactive: No

## 238 (TKFITYRSKKLIQES) [compound 238]
[1]
  Elispot reactive: No

## 239 (LEVMLLNMGYRITGL) [compound 239]
[1]
  Elispot reactive: No
[2]
  Elispot reactive: No

## 240 (SINVLCVRASLIEKL) [compound 240]
IFNγ ELISpot
  ELISpot result (positive response) for peptides tested with ELISpot: No
[1]
  Elispot reactive: No

## 250 (TVEMRRWWTLVMEWK) [compound 250]
[2]
  Elispot reactive: No

## 290 (ANRYFSPNFKVKLYF) [compound 290]
IFNγ ELISpot
  ELISpot result (positive response) for peptides tested with ELISpot: No

## 311 (KSLVRLSSCVPVALM) [compound 311]
[2]
  Elispot reactive: No
Peptides marked Tested with ELISpot
  ELISpot result (positive yes/no): No

## 318 (LRGGVIQSTRRRRRA) [compound 318]
[2]
  Elispot reactive: No

## 319 (PCASLLSTLSQPPPQ) [compound 319]
[2]
  Elispot reactive: No

## 320 (EDMQEVVVHKKRGLF) [compound 320]
[2]
  Elispot reactive: No

## 321 (RFPLLMMWRTPMTTR) [compound 321]
[2]
  Elispot reactive: No

## 322 (PVLFKADQSESSLSS) [compound 322]
[2]
  Elispot reactive: No

## 324 (FGILNVLEFSSDRKK) [compound 324]
[2]
  Elispot reactive: No

## 325 (ILVALSWMGGLHSFY) [compound 325]
[2]
  Elispot reactive: No

## 328 (LLHWRIGGGTPLSIS) [compound 328]
[2]
  Elispot reactive: No

## 329 (EIQLTMNDSKHKLES) [compound 329]
[2]
  Elispot reactive: No

## 332 (GVRILKLCSKVSFRV) [compound 332]
[2]
  Elispot reactive: No

## 334 (ALGLRILPPPLTSPS) [compound 334]
[2]
  Elispot reactive: No

## 335 (KKSVLKAIEQADLLQ) [compound 335]
[2]
  Elispot reactive: No

## 336 (KEALFLQEVFQAERL) [compound 336]
[2]
  Elispot reactive: No

## 354 (PVTPLRVQSVLLLGV) [compound 354]
IFNγ ELISpot
  ELISpot result (positive response) for peptides tested with ELISpot: No

## 507 (VVHKKRGL) [compound 507]
IFNγ ELISpot, only peptides marked Elispot tested = Yes
  Elispot reactive: No

## AGIGWGASY
[3]
  Elispot reactive: yes

## AGIGWGASY [compound 160]
[4]
  ELISPOT result (positive Yes/No) for peptides marked Tested: Yes
[5]
  Elispot reactive: Yes

## AMAENILAA [compound 150]
[4]
  ELISPOT result (positive Yes/No) for peptides marked Tested: No

## APREGAAATPL [compound 18]
[1]
  Elispot reactive: No

## APSLTPMHSL [compound 209]
IFNγ ELISpot, peptide tested
  Elispot reactive: No

## ASLAHSDNF [compound 106]
[4]
  ELISPOT result (positive Yes/No) for peptides marked Tested: No
  ELISPOT positive: No

## ATLVTPPTRY [compound 166]
[4]
  ELISPOT result (positive Yes/No) for peptides marked Tested: No

## CRREYRVTM [compound 135]
[4]
  ELISPOT result (positive Yes/No) for peptides marked Tested: No

## ELLNPVTMNK [compound 207]
IFNγ ELISpot, peptide tested
  Elispot reactive: No

## FLADSGIDPV [WDTC1, WDTC1 neoAg peptide, HLA-A*02:01 restricted]
  ELISpot IFNγ reactivity (immunogenicity) of individual peptides: most reactive (immunogenic); also recorded: immunogenic

## FLAPCNFYL [compound 16]
IFNγ ELISpot, peptide tested
  Elispot reactive: No

## FLATSGIDPV [compound 44]
[4]
  ELISPOT result for peptides marked Tested with ELISPOT (Yes/No): Yes
[2]
  Elispot reactive: Yes
[5]
  Elispot reactive: Yes

## FLIDDNFKV
[3]
  Elispot reactive: yes

## FLIDDNFKV [SEQ ID NO 10]
Listed as TTLL10
  ELISpot IFNγ reactivity (immunogenicity) of individual peptides: most reactive (immunogenic); also recorded: immunogenic

## FLIDDNFKV [compound 10]
IFNγ ELISpot, peptide tested
  Elispot reactive: Yes
[5]
  Elispot reactive: Yes

## FLMDGFDEL [compound 11]
IFNγ ELISpot, peptide tested
  Elispot reactive: No

## FLQEVFQA [compound 5]
[4]
  ELISPOT result (positive Yes/No) for peptides marked Tested: No

## FLWNSLLAV [compound 12]
IFNγ ELISpot, peptide tested
  Elispot reactive: No

## FMNSTVFHV [compound 3]
[4]
  ELISPOT result for peptides marked Tested with ELISPOT (Yes/No): No

## FQVHFLKSGGLPLVL
[3]
  Elispot reactive: yes

## FQVHFLKSGGLPLVL [compound 221]
[1]
  Elispot reactive: Yes
[5]
  Elispot reactive: Yes

## GLLHAVQEKL [compound 165]
[4]
  ELISPOT result (positive Yes/No) for peptides marked Tested: No

## GMVPLIIPV [compound 116]
[2]
  Elispot reactive: No

## HNVQGFHPY [compound 178]
[4]
  ELISPOT result (positive Yes/No) for peptides marked Tested: No

## HPARHLCRL [compound 208]
IFNγ ELISpot, peptide tested
  Elispot reactive: No

## HPPPPCLLLL [compound 217]
IFNγ ELISpot, peptide tested
  Elispot reactive: No

## HSWRFCTHIR [compound 154]
[4]
  ELISPOT result (positive Yes/No) for peptides marked Tested: No

## HTCKVCVSF [compound 176]
[4]
  ELISPOT result (positive Yes/No) for peptides marked Tested: No

## IAFSQLIGM [compound 167]
[4]
  ELISPOT result (positive Yes/No) for peptides marked Tested: No

## IAQPSTSSL [compound 28]
[1]
  Elispot reactive: No
[2]
  Elispot reactive: No

## ILFFFSSK [compound 175]
[4]
  ELISPOT result (positive Yes/No) for peptides marked Tested: No

## IQKSWTATTY
[3]
  Elispot reactive: yes

## IQKSWTATTY [compound 39]
[1]
  Elispot reactive: Yes
[5]
  Elispot reactive: Yes

## KADQSESSL [compound 123]
[2]
  Elispot reactive: No

## KANRYFSPNF [compound 62]
[4]
  ELISPOT result (positive Yes/No) for peptides marked Tested: Yes
  ELISPOT result for peptides marked Tested with ELISPOT (Yes/No): No
[5]
  Elispot reactive: Yes

## KLFEKKYSV [compound 6]
IFNγ ELISpot, peptide tested
  Elispot reactive: No

## KLSSVVPSV [compound 22]
[1]
  Elispot reactive: No

## KLYEAVPQL [compound 159]
[4]
  ELISPOT result (positive Yes/No) for peptides marked Tested: No

## KMMKILMIK [compound 19]
[1]
  Elispot reactive: No

## KPIAGRHTL [compound 8]
IFNγ ELISpot, peptide tested
  Elispot reactive: No

## KPLWRKSPL [compound 137]
[4]
  ELISPOT result (positive Yes/No) for peptides marked Tested: No

## KRAFIHTPR [compound 131]
[4]
  ELISPOT result (positive Yes/No) for peptides marked Tested: No

## KTYMEMHY
[3]
  Elispot reactive: yes

## KTYMEMHY [compound 57]
[4]
  ELISPOT result (positive Yes/No) for peptides marked Tested: No
  ELISPOT result for peptides marked Tested with ELISPOT (Yes/No): Yes
[5]
  Elispot reactive: Yes

## KVDTHHLQV [compound 133]
[4]
  ELISPOT result (positive Yes/No) for peptides marked Tested: No

## KVPFFSALK [compound 169]
[4]
  ELISPOT result (positive Yes/No) for peptides marked Tested: No

From US20240218019A1, “METHODS AND COMPOSITIONS COMPRISING MHC CLASS I PEPTIDES” (BOARD OF REGENTS, THE UNIVERSITY OF TEXAS SYSTEM, priority 2021, published 2024)
